Assay results reported in patent publication US20240269298A1, “PHOSPHONYL DERIVATIVE, AND COMPOSITION AND PHARMACEUTICAL APPLICATION THEREOF” (XIZANG HAISCO PHARMACEUTICAL CO., LTD., priority 2021, published 2024).
Like-named read-outs stand apart in the source and are kept apart here.

Test system: NCI-H1975 (EGFR-L858R-T790M) cells
Test: Inhibitory activity on proliferation of NCI-H1975 (EGFR-L858R-T790M) cells (CTG, 72 h)
Format: cell-based
Details: Homo sapiens
Experimental: NCI-H1975 (EGFR-L858R-T790M) and A431 (EGFR-WT) cells were purchased from ATCC and cultured in an incubator at 37° C. with 5% CO2, and the culture mediums were RPMI1640+10% FBS and DMEM+10% FBS, respectively. On the first day, NCI-H1975 (EGFR-L858R-T790M) and A431 (EGFR-WT) cells in the logarithmic phase were collected, and viable cells were counted using an automatic cell analyzer (countstar). The cell suspensions were adjusted with the culture mediums and plated on a 96-well cell culture plate at 1000 cells/well for NCI-H1975 (EGFR-L858R-T790M) cells and at 3000 cells/well for A431 cells. The next day, the culture mediums were aspirated, and 90 μL of fresh culture mediums and 10 μL of the compounds at different concentrations were added to each well, wherein the final concentration of DMSO in each well was 0.1%. The plate was cultured in the incubator at 37° C. with 5% CO2 for 72 hours. After 72 hours of drug treatment, 50 μL of CTG solution (promega, G7572), which was already pre-melted and equilibrated to room temperature, was added to each well, and the mixtures were uniformly mixed for 2 min using a microplate shaker. The plate was placed at room temperature for 10 min, and then […] signal values were measured using a microplate reader (PHERAstar FSX).
Surviving cells % was calculated based on Vsample/Vvehicle control×100%, wherein Vsample was the readout of the drug-treated group, and Vvehicle control was the average value of the vehicle control group. Using the origin 9.2 software and nonlinear regression model, S-shaped dose-survival curves were plotted, and IC50 values were calculated.

[1] = read-out: IC50 (value in brackets)

| IC50 (read-out: IC50 (class symbol)) [nM] | IC50 [1] [nM] | Compound |
| --- | --- | --- |
| < 100 | 13 | COc1cc(N2CCC(CN3CCC4(CCCN(c5ccc6c(c5)C(=O)N(C5CCC(=O)NC5=O)C6=O)C4)CC3)CC2)c(-c2cnn(C)c2)cc1Nc1ncc(Cl)c(Nc2ccc3nccnc3c2P(C)(C)=O)n1 (stereo not drawn) [Compound 10, 5-(9-((1-(4-((5-chloro-4-((5-(dimethylphosphoryl)quinoxalin-6-yl)amino)pyrimidin-2-yl)amino)-5-methoxy-2-(1-methyl-1H-pyrazol-4-yl)phenyl)piperidin-4-yl)methyl)-2,9-diazaspiro[5.5]undecan-2-yl)-2-(2,6-dioxopiperidin-3-yl)isoindoline-1,3-dione] |
| 100 to 500 | 116 | COc1cc(N2CCN(C3CN(c4ccc5c(c4)C(=O)N(C4CCC(=O)NC4=O)C5=O)C3)CC2)c(-c2cnn(C)c2)cc1Nc1ncc(Cl)c(Nc2ccccc2P(C)(C)=O)n1 (stereo not drawn) [Compound 149, 5-(3-(4-(4-((5-chloro-4-((2-(dimethylphosphoryl)phenyl)amino)pyrimidin-2-yl)amino)-5-methoxy-2-(1-methyl-1H-pyrazol-4-yl)phenyl)piperazin-1-yl)azetidin-1-yl)-2-(2,6-dioxopiperidin-3-yl)isoindoline-1,3-dione] |
| < 100 | 37 | COc1cc(N2CCC(C3CCN(CC4CCN(c5ccc6c(c5)C(=O)N(C5CCC(=O)NC5=O)C6=O)CC4)CC3)CC2)c(-c2cnn(C)c2)cc1Nc1ncc(Cl)c(Nc2ccc3nccnc3c2P(C)(C)=O)n1 (stereo not drawn) [Trifluoroacetate of compound 13, 5-(4-((1′-(4-((5-chloro-4-((5-(dimethylphosphoryl)quinoxalin-6-yl)amino)pyrimidin-2-yl)amino)-5-methoxy-2-(1-methyl-1H-pyrazol-4-yl)phenyl)-[4,4′-bipiperidin]-1-yl)methyl)piperidin-1-yl)-2-(2,6-dioxopiperidin-3-yl)isoindoline-1,3-dione] |
| < 100 | 19 | COc1cc(N2CCN(CC3CCN(c4ccc5c(c4)C(=O)N(C4CCC(=O)NC4=O)C5=O)CC3)CC2)c(-c2cnn(C)c2)cc1Nc1ncc(Br)c(Nc2ccccc2P(C)(C)=O)n1 (stereo not drawn) [Compound 127, 5-(4-((4-(4-((5-bromo-4-((2-(dimethylphosphoryl)phenyl)amino)pyrimidin-2-yl)amino)-5-methoxy-2-(1-methyl-1H-pyrazol-4-yl)phenyl)piperazin-1-yl)methyl)piperidin-1-yl)-2-(2,6-dioxopiperidin-3-yl)isoindoline-1,3-dione] |
| < 100 | 32 | COc1cc(N2CCC(CN3CCN(c4ccc5c(c4)CN(C4CCC(=O)NC4=O)C5=O)CC3)CC2)c(-c2cnn(C)c2)cc1Nc1ncc(Cl)c(Nc2ccccc2P(C)(C)=O)n1 (stereo not drawn) [Compound 140, 3-(5-(4-((1-(4-((5-chloro-4-((2-(dimethylphosphoryl)phenyl)amino)pyrimidin-2-yl)amino)-5-methoxy-2-(1-methyl-1H-pyrazol-4-yl)phenyl)piperidin-4-yl)methyl)piperazin-1-yl)-1-oxoisoindolin-2-yl)piperidine-2,6-dione] |
| < 100 | 16 | COc1cc(N2CCN(C[C@H]3CCN(c4ccc5c(c4)C(=O)N(C4CCC(=O)NC4=O)C5=O)C3)CC2)c(-c2cnn(C)c2)cc1Nc1ncc(Br)c(Nc2ccccc2P(C)(C)=O)n1 (stereo partly drawn) [Compound 122, 5-((R)-3-((4-(4-((5-bromo-4-((2-(dimethylphosphoryl)phenyl)amino)pyrimidin-2-yl)amino)-5-methoxy-2-(1-methyl-1H-pyrazol-4-yl)phenyl)piperazin-1-yl)methyl)pyrrolidin-1-yl)-2-(2,6-dioxopiperidin-3-yl)isoindoline-1,3-dione] |
| < 100 | 33 | COc1cc(N2CCC(N3CCC4(CCCN(c5cc6c(cc5F)C(=O)N(C5CCC(=O)NC5=O)C6=O)C4)CC3)CC2)c(-c2cnn(C)c2)cc1Nc1ncc(Cl)c(Nc2ccc3nccnc3c2P(C)(C)=O)n1 (stereo not drawn) [Compound 28, 5-(9-(1-(4-((5-chloro-4-((5-(dimethylphosphoryl)quinoxalin-6-yl)amino)pyrimidin-2-yl)amino)-5-methoxy-2-(1-methyl-1H-pyrazol-4-yl)phenyl)piperidin-4-yl)-2,9-diazaspiro[5.5]undecan-2-yl)-2-(2,6-dioxopiperidin-3-yl)-6-fluoroisoindoline-1,3-dione] |
| < 100 | 73 | COc1cc(N2CCC(N3CCN(c4ccc5c(c4)C(=O)N(C4CCC(=O)NC4=O)C5=O)CC3)CC2)c(-c2cnn(C)c2)cc1Nc1ncc(Cl)c(Nc2ccccc2P(C)(C)=O)n1 (stereo not drawn) [Compound 115, 5-(4-(1-(4-((5-chloro-4-((2-(dimethylphosphoryl)phenyl)amino)pyrimidin-2-yl)amino)-5-methoxy-2-(1-methyl-1H-pyrazol-4-yl)phenyl)piperidin-4-yl)piperazin-1-yl)-2-(2,6-dioxopiperidin-3-yl)isoindoline-1,3-dione] |
| < 100 | 34 | COc1cc(N2CCC(N3CCC(CN4CCN(c5ccc6c(c5)C(=O)N(C5CCC(=O)NC5=O)C6=O)CC4)CC3)CC2)c(-c2cnn(C)c2)cc1Nc1ncc(Cl)c(Nc2ccc3nccnc3c2P(C)(C)=O)n1 (stereo not drawn) [Compound 8, 5-(4-((1′-(4-((5-chloro-4-((5-(dimethylphosphoryl)quinoxalin-6-yl)amino)pyrimidin-2-yl)amino)-5-methoxy-2-(1-methyl-1H-pyrazol-4-yl)phenyl)-[1,4′-bipiperidin]-4-yl)methyl)piperazin-1-yl)-2-(2,6-dioxopiperidin-3-yl)isoindoline-1,3-dione] |

More lines, now with the values behind:

| Compound | IC50 (read-out: IC50 (class symbol)) [nM] | IC50 [1] [nM] |
| --- | --- | --- |
| COc1cc(N2CCC(CN3CCN(c4ccc(N5CCC(=O)NC5=O)cc4)CC3)CC2)c(-c2cnn(C)c2)cc1Nc1ncc(Cl)c(Nc2ccc(C3CC3)cc2P(C)(C)=O)n1 [Compound 131, 1-(4-(4-((1-(4-((5-chloro-4-((4-cyclopropyl-2-(dimethylphosphoryl)phenyl)amino)pyrimidin-2-yl)amino)-5-methoxy-2-(1-methyl-1H-pyrazol-4-yl)phenyl)piperidin-4-yl)methyl)piperazin-1-yl)phenyl)dihydropyrimidine-2,4(1H,3H)-dione] | 100 to 500 | 214 |
| COc1cc(N2CCC(CN3CCCC4(CCN(c5ccc6c(c5)C(=O)N(C5CCC(=O)NC5=O)C6=O)CC4)C3)CC2)c(-c2cnn(C)c2)cc1Nc1ncc(Br)c(Nc2ccc(-c3ccccc3)cc2P(C)(C)=O)n1 (stereo not drawn) [Compound 44, 5-(2-((1-(4-((5-bromo-4-((3-(dimethylphosphoryl)-[1,1′-biphenyl]-4-yl)amino)pyrimidin-2-yl)amino)-5-methoxy-2-(1-methyl-1H-pyrazol-4-yl)phenyl)piperidin-4-yl)methyl)-2,9-diazaspiro[5.5]undecan-9-yl)-2-(2,6-dioxopiperidin-3-yl)isoindoline-1,3-dione] | 100 to 500 | 301 |
| COc1cc(N2CCC(CN3CCN(c4ccc(C5CCC(=O)NC5=O)c(F)c4)CC3)CC2)c(-c2cnn(C)c2)cc1Nc1ncc(Cl)c(Nc2ccc(C3CC3)cc2P(C)(C)=O)n1 (stereo not drawn) [Compound 153, 3-(4-(4-((1-(4-((5-chloro-4-((4-cyclopropyl-2-(dimethylphosphoryl)phenyl)amino)pyrimidin-2-yl)amino)-5-methoxy-2-(1-methyl-1H-pyrazol-4-yl)phenyl)piperidin-4-yl)methyl)piperazin-1-yl)-2-fluorophenyl)piperidine-2,6-dione] | < 100 | 73 |
| COc1cc(N2CCC(CN3CCN(c4ccc(N5CCC(=O)NC5=O)cc4)CC3)CC2)c(-c2cnn(C)c2)cc1Nc1ncc(Cl)c(Nc2ccccc2P(C)(C)=O)n1 [Compound 132, 1-(4-(4-((1-(4-((5-chloro-4-((2-(dimethylphosphoryl)phenyl)amino)pyrimidin-2-yl)amino)-5-methoxy-2-(1-methyl-1H-pyrazol-4-yl)phenyl)piperidin-4-yl)methyl)piperazin-1-yl)phenyl)dihydropyrimidine-2,4(1H,3H)-dione] | 100 to 500 | 296 |
| COc1cc(N2CCC(CN3CCN(c4ccc(NC5CCC(=O)NC5=O)cc4F)CC3)CC2)c(-c2cnn(C)c2)cc1Nc1ncc(Cl)c(Nc2ccc(C3CC3)cc2P(C)(C)=O)n1 (stereo not drawn) [Compound 158, 3-((4-(4-((1-(4-((5-chloro-4-((4-cyclopropyl-2-(dimethylphosphoryl)phenyl)amino)pyrimidin-2-yl)amino)-5-methoxy-2-(1-methyl-1H-pyrazol-4-yl)phenyl)piperidin-4-yl)methyl)piperazin-1-yl)-3-fluorophenyl)amino)piperidine-2,6-dione] | < 100 | 26 |
| COc1cc(N2CCC3(CCN(CC4CCN(c5cc6c(cc5F)C(=O)N(C5CCC(=O)NC5=O)C6=O)CC4)CC3)CC2)c(-c2cnn(C)c2)cc1Nc1ncc(Cl)c(Nc2ccc(-c3ccccc3)cc2P(C)(C)=O)n1 (stereo not drawn) [Compound 51, 5-(4-((9-(4-((5-chloro-4-((3-(dimethylphosphoryl)-[1,1′-biphenyl]-4-yl)amino)pyrimidin-2-yl)amino)-5-methoxy-2-(1-methyl-1H-pyrazol-4-yl)phenyl)-3,9-diazaspiro[5.5]undecan-3-yl)methyl)piperidin-1-yl)-2-(2,6-dioxopiperidin-3-yl)-6-fluoroisoindoline-1,3-dione] | < 100 | 72 |
